Data taken from patent US10202361B2, “Pyridazinones as herbicides” (E I DU PONT DE NEMOURS AND COMPANY, priority 2014, dated 2019).
Read-outs that look alike come from different tables or passages of the source.

Columns and labels:
Format in all cases: in vivo
[1] = system: oat, wild (wild oat, Avena fatua); assay: Test C pre-/postemergence greenhouse herbicide test; conditions: Postemergence
In short: (§1)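 Seeds in loam–sand blend sprayed preemergence, and 1- to 4-leaf plants (2–18 cm) sprayed postemergence, with compounds in non-phytotoxic solvent plus surfactant. Visual rating versus controls after 13–15 d in greenhouse, 0 (no effect) to 100 (complete control).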

[2] = system: barnyardgrass (Echinochloa crus-galli); assay: as above; conditions: Barnyardgrass
In short: as §1

[3] = system: pigweed (Amaranthus retroflexus); assay: Test A pre-/postemergence greenhouse herbicide test; conditions: Amaranthus retroflexus, 240 h, 0 to 100 scale (0 no effect, 100 complete control), approx. 10 d, read-out: Plant response rating, Pigweed; for pest or weed control at 125 g/ha: 125 g ai/ha; for pest or weed control at 500 g/ha: 500 g ai/ha
In short: (§2)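 Greenhouse pre- and postemergence treatment in loam/sand soil, test chemicals in non-phytotoxic solvent with surfactant; postemergence plants 2–10 cm, one- to two-leaf stage. Visual injury rated after approximately 10 d versus untreated controls, 0 (no effect) to 100 (complete control).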

[4] = system: morningglory (Ipomoea spp.); assay: as above; conditions: Ipomoea, post-emergence, 240 h, Postemergence, 0 to 100 scale (0 no effect, 100 complete control), approx. 10 d, read-out: Plant response rating, Morningglory
In short: as §2

[5] = system: barnyardgrass (Echinochloa crus-galli); assay: as above; conditions: Echinochloa crus-galli, 240 h, 0 to 100 scale (0 no effect, 100 complete control), approx. 10 d, read-out: Plant response rating, Barnyardgrass; for pest or weed control at 125 g/ha: 125 g ai/ha; for pest or weed control at 500 g/ha: 500 g ai/ha
In short: as §2

[6] = system: crabgrass, Large (large crabgrass, Digitaria sanguinalis); assay: as above; conditions: Digitaria sanguinalis, 240 h, 0 to 100 scale (0 no effect, 100 complete control), approx. 10 d, read-out: Plant response rating, Crabgrass, Large; for pest or weed control at 125 g/ha: 125 g ai/ha; for pest or weed control at 500 g/ha: 500 g ai/ha
In short: as §2

[7] = system: foxtail, giant (giant foxtail, Setaria faberii); assay: as above; conditions: Setaria faberi, 240 h, 0 to 100 scale (0 no effect, 100 complete control), approx. 10 d, read-out: Plant response rating, Foxtail, Giant; for pest or weed control at 125 g/ha: 125 g ai/ha; for pest or weed control at 500 g/ha: 500 g ai/ha
In short: as §2

[8] = system: velvetleaf (Abutilon theophrasti); assay: as above; conditions: Abutilon theophrasti, 240 h, 0 to 100 scale (0 no effect, 100 complete control), approx. 10 d, read-out: Plant response rating, Velvetleaf; for pest or weed control at 125 g/ha: 125 g ai/ha; for pest or weed control at 500 g/ha: 500 g ai/ha
In short: as §2

[9] = system: wheat (Triticum aestivum); assay: as above; conditions: Triticum aestivum, 240 h, 0 to 100 scale (0 no effect, 100 complete control), approx. 10 d, read-out: Plant response rating, Wheat; for plant injury at 125 g/ha: 125 g ai/ha; for plant injury at 500 g/ha: 500 g ai/ha
In short: as §2

corn (Zea mays) = assay: as above; conditions: Zea mays, 240 h, 0 to 100 scale (0 no effect, 100 complete control), approx. 10 d; for Corn plant response rating (crop injury, 0 = no effect, 100 = complete kill) at 125 g/ha: 125 g ai/ha; for Corn plant response rating (crop injury, 0 = no effect, 100 = complete kill) at 500 g/ha: 500 g ai/ha
In short: as §2

## COc1cc(=O)n(-c2ccc(F)cc2)nc1Cc1ccnc(C(F)(F)F)c1 [Compound 17, 2-(4-fluorophenyl)-5-methoxy-6-[[2-(trifluoromethyl)-4-pyridinyl]methyl]-3 (2H)-pyridazinone]
[1]; 31 g ai/ha
  Plant response rating: 10
[1]; 62 g ai/ha
  Plant response rating: 15
[1]; 125 g ai/ha
  Plant response rating: 40
[1]; 250 g ai/ha
  Plant response rating: 45
[2]; Postemergence, 31 g ai/ha
  Plant response rating: 5
[2]; Postemergence, 62 g ai/ha
  Plant response rating: 5
[2]; Postemergence, 125 g ai/ha
  Plant response rating: 10
[2]; Postemergence, 250 g ai/ha
  Plant response rating: 35
[2]; Preemergence, 31 g ai/ha
  Plant response rating: 80
[2]; Preemergence, 62 g ai/ha
  Plant response rating: 90
[2]; Preemergence, 125 g ai/ha
  Plant response rating: 100
[2]; Preemergence, 250 g ai/ha
  Plant response rating: 100
[3]; post-emergence, Postemergence
  pest or weed control at 125 g/ha: 100%
  pest or weed control at 500 g/ha: 100%
[3]; pre-emergence, Preemergence
  pest or weed control at 125 g/ha: 100%
  pest or weed control at 500 g/ha: 100%
[4]; 125 g ai/ha
  pest or weed control at 125 g/ha: 100%
[4]; 500 g ai/ha
  pest or weed control at 500 g/ha: 100%
[5]; post-emergence, Postemergence
  pest or weed control at 125 g/ha: 80%
  pest or weed control at 500 g/ha: 90%
[5]; pre-emergence, Preemergence
  pest or weed control at 125 g/ha: 80%
  pest or weed control at 500 g/ha: 100%
[6]; post-emergence, Postemergence
  pest or weed control at 125 g/ha: 90%
  pest or weed control at 500 g/ha: 90%
[6]; pre-emergence, Preemergence
  pest or weed control at 125 g/ha: 100%
  pest or weed control at 500 g/ha: 100%
[7]; post-emergence, Postemergence
  pest or weed control at 125 g/ha: 90%
  pest or weed control at 500 g/ha: 90%
[7]; pre-emergence, Preemergence
  pest or weed control at 125 g/ha: 100%
  pest or weed control at 500 g/ha: 100%
[8]; post-emergence, Postemergence
  pest or weed control at 125 g/ha: 100%
  pest or weed control at 500 g/ha: 100%
[8]; pre-emergence, Preemergence
  pest or weed control at 125 g/ha: 100%
  pest or weed control at 500 g/ha: 100%
[9]; post-emergence, Postemergence
  plant injury at 125 g/ha: 60%
  plant injury at 500 g/ha: 70%
[9]; pre-emergence, Preemergence
  plant injury at 125 g/ha: 20%
  plant injury at 500 g/ha: 50%
Corn (Zea mays); post-emergence, Postemergence
  Corn plant response rating (crop injury, 0 = no effect, 100 = complete kill) at 125 g/ha: 60%
  Corn plant response rating (crop injury, 0 = no effect, 100 = complete kill) at 500 g/ha: 80%
Corn (Zea mays); pre-emergence, Preemergence
  Corn plant response rating (crop injury, 0 = no effect, 100 = complete kill) at 125 g/ha: 40%
  Corn plant response rating (crop injury, 0 = no effect, 100 = complete kill) at 500 g/ha: 50%
